The text below walks through data of patent US8912220B2 (priority 2009, dated 2014).

SMILES strings stand for the structures.

Chain of human 5-HT2C(VSV) (P28335 33-458 I156V/N158S/I160V limits assumed): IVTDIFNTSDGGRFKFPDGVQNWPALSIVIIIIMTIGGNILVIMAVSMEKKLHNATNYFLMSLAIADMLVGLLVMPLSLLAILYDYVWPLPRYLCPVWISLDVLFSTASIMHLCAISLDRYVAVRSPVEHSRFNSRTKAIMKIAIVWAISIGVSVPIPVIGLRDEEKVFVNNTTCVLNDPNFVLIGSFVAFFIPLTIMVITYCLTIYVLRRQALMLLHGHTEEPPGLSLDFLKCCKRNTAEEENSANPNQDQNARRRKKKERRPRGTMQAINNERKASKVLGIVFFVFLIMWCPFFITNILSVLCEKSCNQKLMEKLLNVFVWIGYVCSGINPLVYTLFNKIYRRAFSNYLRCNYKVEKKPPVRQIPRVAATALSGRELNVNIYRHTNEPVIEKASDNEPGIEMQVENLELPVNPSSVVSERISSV

The assay addresses human 5-HT2C(VSV) (Homo sapiens, UniProt P28335, I156V/I160V/N158S). In words: cell-based.
With `CCCn1cc(CCNCc2cccc(C)n2)c2c(O)c(F)ccc21` [17-19, 5-fluoro-3-(2-(((6-methylpyridin-2-yl)methyl)amino)ethyl)-1-propyl-1H-indol-4-ol], the concentration giving a half-maximal response (EC50) – broadly, the concentration that produces a half-maximal response – is < 10000 nM.
In turn, `CNCCc1cn(C)c2ccc(F)c(OCCc3ccc(OC)cc3)c12` [33-25, 2-(5-fluoro-4-(4-methoxyphenethoxy)-1-methyl-1H-indol-3-yl)-N-methylethanamine] showed an EC50 of 1 to 500 nM.
The compound `CNCCc1cn(C)c2ccc(F)c(OCc3cccc4cccnc34)c12` [33-13, 2-(5-fluoro-1-methyl-4-(quinolin-8-ylmethoxy)-1H-indol-3-yl)-N-methylethanamine] had a 50% effective concentration (EC50) of 1 to 500 nM.
Next, `CNCCc1cn(C)c2ccc(F)c(OCc3cccc4ccccc34)c12` [33-36, 2-(5-fluoro-1-methyl-4-(naphthalen-1-ylmethoxy)-1H-indol-3-yl)-N-methylethanamine]: 1 to 500 nM.
Next, `CCOc1c(F)ccc2c1c(CCNCc1ccccc1Cl)cn2C` [30-17, N-(2-chlorobenzyl)-2-(4-ethoxy-5-fluoro-1-methyl-1H-indol-3-yl)ethanamine]: 1 to 500 nM; `CNCCc1cn(C)c2ccc(F)c(OCc3ccccc3-c3ccccc3)c12` [33-30, 2-(4-(biphenyl-2-ylmethoxy)-5-fluoro-1-methyl-1H-indol-3-yl)-N-methylethanamine]: 1 to 500 nM.
Compound `NCCc1cn(CC2COc3ccccc3O2)c2ccc(F)c(O)c12` (centres unmarked) [19-5, 3-(2-aminoethyl)-1-((2,3-dihydrobenzo[b][1,4]dioxin-2-yl)methyl)-5-fluoro-1H-indol-4-ol] had an EC50 of 1 to 500 nM.
With `COc1ccc(F)c2c1c(C(C)CN)cn2C` (centres unmarked) [9-5, 2-(7-fluoro-4-methoxy-1-methyl-1H-indol-3-yl)propan-1-amine], the EC50 is 1 to 500 nM.
Compound `COc1ccc(-c2ccoc2)c2c1c(CCN(C)C)cn2C` [6-9, 2-(7-(furan-3-yl)-4-methoxy-1-methyl-1H-indol-3-yl)-N,N-dimethylethanamine] had a concentration giving a half-maximal response (EC50) of 500 to 10000 nM.
For the compound `COc1c(F)ccc2c1c(CCNc1cccc(N3CCN(C)CC3)c1)cn2C` [17-18, N-(2-(5-fluoro-4-methoxy-1-methyl-1H-indol-3-yl)ethyl)-3-(4-methylpiperazin-1-yl)aniline], the EC50 lay in the range of 1 to 500 nM.
With `CCn1cc(CCN2C[C@@H](C)O[C@@H](C)C2)c2c(O)cc(F)cc21` [11-13], the EC50 was in the range of 500 to 10000 nM.
In turn, `CCn1cc(CCN(C)Cc2ccccc2)c2c(OCc3ccccc3)cc(F)cc21` [31-6, N-benzyl-2-(4-(benzyloxy)-1-ethyl-6-fluoro-1H-indol-3-yl)-N-methylethanamine] had an EC50 of 1 to 500 nM.
Next, `CCn1cc(CCN(C)C)c2c(OC)cc(-c3ccccc3)cc21` [36-6, 2-(1-ethyl-4-methoxy-6-phenyl-1H-indol-3-yl)-N,N-dimethylethanamine]: 500 to 10000 nM; `CNCCc1cn(C)c2ccc(F)c(OCc3ccc(C)cc3)c12` [33-27, 2-(5-fluoro-1-methyl-4-(4-methylbenzyloxy)-1H-indol-3-yl)-N-methylethanamine]: 1 to 500 nM; `CCn1cc(CCNCc2ccccc2)c2c(OCc3ccccc3)cc(F)cc21` [26-7, N-benzyl-2-(4-(benzyloxy)-1-ethyl-6-fluoro-1H-indol-3-yl)ethanamine]: 500 to 10000 nM.
On to `CNCCc1cn(C)c2ccc(F)c(OCCc3ccc(F)cc3)c12` [33-28, 2-(5-fluoro-4-(4-fluorophenethoxy)-1-methyl-1H-indol-3-yl)-N-methylethanamine], for which the EC50 was in the range of 1 to 500 nM.
As to `CCn1cc(CCNCCc2cccc(C(F)(F)F)c2)c2c(O)cc(F)cc21` [26-10, 1-ethyl-6-fluoro-3-(2-(3-(trifluoromethyl)phenethylamino)ethyl)-1H-indol-4-ol], the concentration giving a half-maximal response (EC50) fell in the range of 1 to 500 nM.
`CCn1cc(CCNCc2ccccc2Cl)c2c(OC)ccc(F)c21` [20-10, N-(2-chlorobenzyl)-2-(1-ethyl-7-fluoro-4-methoxy-1H-indol-3-yl)ethanamine] showed a concentration for a half-maximal effect (EC50) of 1 to 500 nM.
In turn, `CNCCc1cn(C)c2c(F)cc(CCC3CCCCC3)c(OC)c12` [23-5, 2-(5-(2-cyclohexylethyl)-7-fluoro-4-methoxy-1-methyl-1H-indol-3-yl)-N-methylethanamine] came in with a 50% effective concentration (EC50) of 1 to 500 nM.
`COc1ccc(F)c2c1c(CCN1CCCC1)cn2C` [11-10, 7-fluoro-4-methoxy-1-methyl-3-(2-(pyrrolidin-1-yl)ethyl)-1H-indole] registered a concentration giving a half-maximal response (EC50) of 1 to 500 nM.
Consider `CN(C)CCc1cn(Cc2cccs2)c2c(F)ccc(OCc3ccccc3)c12` [7-4, 2-(4-(benzyloxy)-7-fluoro-1-(thiophen-2-ylmethyl)-1H-indol-3-yl)-N,N-dimethylethanamine], for which the concentration giving a half-maximal response (EC50) lay within 1 to 500 nM.
Turning to `CN(C)CCc1cn(Cc2ccccc2)c2c(F)ccc(O)c12` [7-3, 1-benzyl-3-(2-(dimethylamino)ethyl)-7-fluoro-1H-indol-4-ol], the 50% effective concentration (EC50) lay in the range of 500 to 10000 nM.
Regarding `CCCn1cc(CCN)c2c3c(ccc21)OCCO3` [40-6, 2-(7-propyl-3,7-dihydro-2H-[1,4]dioxino[2,3-e]indol-9-yl)ethanamine], the EC50 is < 10000 nM.
In turn, `CCOc1c(F)ccc2c1c(CCNCc1ccccc1C(F)(F)F)cn2C` [30-21, 2-(4-ethoxy-5-fluoro-1-methyl-1H-indol-3-yl)-N-(2-(trifluoromethyl)benzyl)ethanamine] showed an EC50 of 1 to 500 nM.
Next, `NCCc1cn(CC2CCCCO2)c2ccc(F)c(O)c12` (centres unmarked) [19-3, 3-(2-Aminoethyl)-5-fluoro-1-((tetrahydro-2H-pyran-2-yl)methyl)-1H-indol-4-ol]: 1 to 500 nM.
For `CCn1cc(CCN(C)C)c2c(Oc3ccccc3N)ccc(F)c21` [2-3, 2-(3-(2-(dimethylamino)ethyl)-1-ethyl-7-fluoro-1H-indol-4-yloxy)aniline], the EC50 lay within 1 to 500 nM.
`CCn1cc(CCN2CCNCC2)c2c(O)cc(F)cc21` [11-15, 1-ethyl-6-fluoro-3-(2-(piperazin-1-yl)ethyl)-1H-indol-4-ol] returned an EC50 of 500 to 10000 nM.
Regarding `CCn1cc(CCNCCc2ccccc2)c2c(O)cc(F)cc21` [26-11, 1-ethyl-6-fluoro-3-(2-(phenethylamino)ethyl)-1H-indol-4-ol], the EC50 lay in the range of 1 to 500 nM.
As for `CCOc1c(F)ccc2c1c(CCNCc1ccccc1)cn2C` [30-15, N-benzyl-2-(4-ethoxy-5-fluoro-1-methyl-1H-indol-3-yl)ethanamine], the EC50 was 1 to 500 nM.
Next, `CCn1cc(CCNC(c2ccccc2)c2ccccc2)c2c(O)cc(F)cc21` [31-10, 3-(2-(benzhydrylamino)ethyl)-1-ethyl-6-fluoro-1H-indol-4-ol]: 1 to 500 nM.
Take `CNCCc1cn(C)c2ccc(F)c(OCc3ccccc3F)c12` [33-24, 2-(5-fluoro-4-(2-fluorobenzyloxy)-1-methyl-1H-indol-3-yl)-N-methylethanamine]: the 50% effective concentration (EC50) is 1 to 500 nM.
`COc1c(F)ccc2c1c(CCNC(C)c1ccccc1)cn2C` (centres unmarked) [34-10, 2-(5-fluoro-4-methoxy-1-methyl-1H-indol-3-yl)-N-(1-phenylethyl)ethanamine] had a concentration giving a half-maximal response (EC50) of 1 to 500 nM.
As to `CCN(CC)C(=O)Cn1cc(CCN)c2c(O)c(F)ccc21` [19-6, 2-(3-(2-aminoethyl)-5-fluoro-4-hydroxy-1H-indol-1-yl)-N,N-diethylacetamide], the concentration giving a half-maximal response (EC50) is < 10000 nM.
In the case of `CNCCc1cn(C)c2ccc(F)c(OCc3cc(F)ccc3C)c12` [33-33, 2-(5-fluoro-4-(5-fluoro-2-methylbenzyloxy)-1-methyl-1H-indol-3-yl)-N-methylethanamine], the EC50 was in the range of 1 to 500 nM.
Compound `CNCCc1cn(C)c2ccc(F)c(OCc3ccc(S(C)(=O)=O)cc3)c12` [33-38, 2-(5-fluoro-1-methyl-4-(4-(methylsulfonyl)benzyloxy)-1H-indol-3-yl)-N-methylethanamine] showed an EC50 of 1 to 500 nM.
As for `NCCc1cn(CC(N)=O)c2ccc(F)c(O)c12` [19-7, 2-(3-(2-aminoethyl)-5-fluoro-4-hydroxy-1H-indol-1-yl)acetamide], the EC50 is < 10000 nM.
As for `CCn1cc(CCN2CCOCC2)c2c(O)cc(F)cc21` [11-5, 1-ethyl-6-fluoro-3-(2-morpholinoethyl)-1H-indol-4-ol], the 50% effective concentration (EC50) lay in the range of 1 to 500 nM.
Next, `CCOc1c(F)ccc2c1c(CCNCc1ccc3c(c1)OCO3)cn2C` [30-18, N-(benzo[d][1,3]dioxol-5-ylmethyl)-2-(4-ethoxy-5-fluoro-1-methyl-1H-indol-3-yl)ethanamine]: 1 to 500 nM; `CCCn1cc(CCNC)c2c(OCc3ccc(C)cc3)c(F)ccc21` [33-16, 2-(5-fluoro-4-(4-methylbenzyloxy)-1-propyl-1H-indol-3-yl)-N-methylethanamine]: 1 to 500 nM.
For the compound `CCn1cc(C2CCCN(C)C2)c2c(O)cc(F)cc21` (centres unmarked) [38-6, 1-ethyl-6-fluoro-3-(1-methylpiperidin-3-yl)-1H-indol-4-ol], the concentration giving a half-maximal response (EC50) is 500 to 10000 nM.
`COC(=O)/C=C/c1ccc(OC)c2c(CCN(C)C)cn(C)c12` [25-2, (E)-methyl 3-(3-(2-(dimethylamino)ethyl)-4-methoxy-1-methyl-1H-indol-7-yl)acrylate]: the 50% effective concentration (EC50) lay within 1 to 500 nM.
`CNCCc1cn(C)c2ccc(F)c(OCc3ccccc3C)c12` [33-22, 2-(5-fluoro-1-methyl-4-(2-methylbenzyloxy)-1H-indol-3-yl)-N-methylethanamine] registered an EC50 of 1 to 500 nM.
In turn, `COc1ccc(-c2ccsc2)c2c1c(CCN(C)C)cn2C` [6-13, 2-(4-methoxy-1-methyl-7-(thiophen-3-yl)-1H-indol-3-yl)-N,N-dimethylethanamine] displayed an EC50 of 500 to 10000 nM.
On to `CCOc1c(F)ccc2c1c(CCN1CCOCC1)cn2C` [30-23, 4-(2-(4-ethoxy-5-fluoro-1-methyl-1H-indol-3-yl)ethyl)morpholine], for which the EC50 lay within 500 to 10000 nM.
Next, `CCCn1cc(CCNC)c2c(OCc3ccc(F)cc3)c(F)ccc21` [33-15, 2-(5-fluoro-4-(4-fluorobenzyloxy)-1-propyl-1H-indol-3-yl)-N-methylethanamine]: 1 to 500 nM; `CN(C)CCc1cn(Cc2ccccc2)c2c(F)ccc(OCc3ccccc3)c12` [7-2, 2-(1-benzyl-4-(benzyloxy)-7-fluoro-1H-indol-3-yl)-N,N-dimethylethanamine]: 500 to 10000 nM; `CCOc1c(F)ccc2c1c(CCNCCc1ccccn1)cn2C` [30-27, 2-(4-ethoxy-5-fluoro-1-methyl-1H-indol-3-yl)-N-(2-(pyridin-2-yl)ethyl)ethanamine]: 1 to 500 nM.
